Experimental data taken from paper PMC5589090 (PLoS Medicine, 2017).
Several values for one entry are separate records, joined by “and”; a condition that tells them apart may be missing. Equal entries are not always repeated. Where two headings read alike, the source gives them in different places.

What was measured:
[1] = cited from earlier work; for Cmax: read-out: decitabine Cmax
[2] = cited from earlier work
[3] = tested on: normal CD34+ hematopoietic stem and progenitor cells; details: cited from earlier work
[4] = cited from earlier work; remark: listed apart in the source
cancers = tested on: cancers; design: method as in ref 94 (a number printed in a supplementary file, which may have a reference list of its own: not looked up in the article's list); details: cited from earlier work
HbF = HbF levels by HPLC; type: in vivo, human
Text: Blood counts, blood chemistries, total bilirubin, HbF, LDH, and D-dimer levels were standard clinical pathology tests through the CLIA-certified Clinical Pathology Laboratory at the University of Illinois at Chicago. […] For quantification of F-cells by flow cytometry, peripheral blood samples were fixed and stained with phycoerythrin-conjugated anti-HbF (Caltag) per manufacturer’s instructions. A normal adult negative control and cord blood positive control were run with each Becton-Dickinson FacsCalibur (Sunnyvale, CA) analysis.

E. Coli lac I transgene = details: ref 76 77; cited from earlier work
[5] = Decitabine plasma pharmacokinetics by LCMS/MS after first oral THU-decitabine dose; type: in vivo, human; details: for Cmax: first dose
Experimental: Blood samples were drawn over a period of less than 1 minute into tubes pre-loaded with heparin and THU 10 μg/ml (to prevent in vitro metabolism by CDA) and immediately transferred onto ice. Samples were then centrifuged as soon as possible at 600 g for 5 minutes at 4°C. […] Pharmacokinetic data were analyzed using non-compartmental methods or a 2-compartment model with instantaneous/intravenous input using the R package PKLMfit. […] The AUClast (the area under the curve from the time of dosing to the last measurable concentration) was calculated by the linear trapezoidal method.
Samples will be processed immediately by centrifugation at 3000 × g for 5 min in a refrigerated centrifuge. […] To increase stability, tetrahydrouridine (THU), a cytidine deaminase inhibitor, will be added to the plasma supernatant at a final concentration of 100 μM immediately after centrifugation. Plasma (300 μL) will be then aliquoted into two tubes with the remaining plasma in a third tube. The plasma will be immediately frozen at −80 °C until analysis. All samples will be sent to Jiang Wang, PhASR at The Ohio State University for processing (appendix B).
The chromatographic separation will be performed on a 250 mm × 2.0 mm i.d., 4.0 μm, C18 column (YMC Co. Ltd., Kyoto, Japan) and a 20 mm × 2.1 mm i.d., 3.5 μm, C18 guard column (Waters Xterra RP18, Waters Corporation, Milford, MA, USA) kept at room temperature. The mobile phase used for chromatographic separation will be composed of 2 mM ammonium acetate containing 0.1% formic acid and methanol, and is delivered using a gradient flow. The mass spectrometer is equipped with an electrospray interface, which will be operated in a positive mode, and controlled by the completely validated Masslynx software (Waters Corporation, Milford, MA, USA). […] The analytical method is currently under development and validation according to the ICH Guideline (ICH Harmonized Tripartite Guideline. Validation of Analytical Procedures: Text and Methodology. Q2(R1). Incorporated in November, 2005) in the laboratory of Dr. Lyubimov (Toxicology Research Laboratory, TRL). Method specificity, linearity, range, accuracy, precision and detection limit will be established and validated. In addition, short-term, long-term and freezing/towing stability will be determined. All sample collection, handling and analysis procedures will be performed according to GLP and GCP requirements. All data and the report will be audited by the Quality Assurance Officer at TRL.
PK analysis: PK analysis will be performed using the Winnonlin software (version 5.0.1, Pharsight NC) and will include the determination of maximum plasma concentration (Cmax), time to maximum plasma concentration (Tmax), area under the plasma concentration-versus-time curve from time zero to last measurable plasma concentration (AUC0-t). The terminal rate constant ( [picture] z) will be determined from the slope of the terminal phase of the plasma concentration-time curve using uniform weight. The terminal half-life (T1/2) will be calculated as 0.693 divided by [picture] z. Area under the concentration-time curve (AUC) will be calculated using the log/linear trapezoidal rule. The AUC will be extrapolated to infinity (AUC0– [picture] ) by using the equation, AUC0– [picture] = AUC0–t + Clast/ [picture] z, where Clast will be the final quantifiable concentration.

[6] = tested on: Salmonella typhimurium tester strain TA100; design: method as in ref 78 (a number printed in a supplementary file, which may have a reference list of its own: not looked up in the article's list); details: cited from earlier work
[7] = per patient, SC 0.2 mg/kg 2x/week, 0.2 mg/kg
[8] = two daily treatments 0.5 µM, ref Investigators Brochure

Structure (SMILES): Nc1ncn([C@H]2C[C@H](O)[C@@H](CO)O2)c(=O)n1 [decitabine, 5-aza-2’-deoxycytidine]
- lethal toxicity ([1]; decitabine 1.0 mg/kg + THU 167 mg/kg 2X/week for 9 weeks, ref Investigators Brochure): lethal toxicity in eight females and one male
- toxicity in bone marrow, lymphoid and testicular tissue ([1]; decitabine 0.2 and 0.4 mg/kg + THU, ref Investigators Brochure): reversible toxicity
- Cmax ([1]; low dose 0.2 mg/kg + THU 167 mg/kg oral gavage 2X/week, ref Investigators Brochure): 1500 nM
- Cmax ([1]; mid dose 0.4 mg/kg + THU 167 mg/kg oral gavage 2X/week, ref Investigators Brochure): 2900 nM
- Cmax ([1]; mouse, in vivo): 8600 nM
- NOAEL ([1]; ref Investigators Brochure): no NOAEL
- decrease of decitabine Cmax and AUC cal,0→180 on day 58 compared to day 1 ([1]; ref Investigators Brochure): ~ 30%
- total hemoglobin (Hb), peak ([2]; SC 0.2 mg/kg 2x/week for 12 weeks, five patients, baseline 7.88 ± 0.88): 9.04 ± 0.77 g/dL
- Absolute Retic count B/L ([2]; baseline, per patient): 1.65e+11 L⁻¹ and 1.55e+11 L⁻¹ and 1.63e+11 L⁻¹ and 1.96e+11 L⁻¹ and 1.06e+11 L⁻¹
- Annexin-V RBC B/L ([2]; baseline, per patient): 0% and 2% and 0.6% and 3.4% and 0.8%
- EPO B/L ([2]; baseline, per patient): 197.8 mIU/ml and 25 mIU/ml and 241.4 mIU/ml and 186 mIU/ml and 86.6 mIU/ml
- HbF B/L ([2]; baseline, per patient): 7 g/dL and 0.1 g/dL and 2.8 g/dL and 4.8 g/dL and 3.6 g/dL
- Hemoglobin B/L ([2]; baseline, per patient): 8.8 g/dL and 10.7 g/dL and 6.1 g/dL and 7.8 g/dL and 6 g/dL
- Indirect Bilirubin B/L ([2]; baseline, per patient): 25.7 µmol/L and 104.3 µmol/L and 89 µmol/L and 33 µmol/L and 20 µmol/L
- Normochromic Normovolumetric Cells B/L ([2]; baseline, per patient): 36% and 67.4% and 65.4% and 63.9% and 61.2%
- Serum LDH B/L ([2]; baseline, per patient): 893 U/L and 596 U/L and 458 U/L and 192 U/L and 258 U/L
- genotoxicity (erythrocyte micronucleus, VDJ recombination assay) [2]: without erythrocyte micronucleus or VDJ recombination assay evidence of genotoxicity
- Increases in Hb achieved ([2]; in two of the five patients): ≥ 1.5 g/dL
- Absolute Retic count Nadir [2, 7]: 1.35e+11 L⁻¹ and 1.6e+11 L⁻¹ and 1.16e+11 L⁻¹ and 1.25e+11 L⁻¹ and 7.9e+10 L⁻¹
- Absolute Retic count Wk 12 [2, 7]: 1.35e+11 L⁻¹ and 1.6e+11 L⁻¹ and 1.16e+11 L⁻¹ and 1.45e+11 L⁻¹ and 7.9e+10 L⁻¹
- Annexin-V RBC Nadir [2, 7]: 0% and 0.1% and 0.4%
- Annexin-V RBC Wk 12 [2, 7]: 0.5% and 0.7% and 0.1% and 2.6% and 1.1%
- EPO Nadir [2, 7]: 117.2 mIU/ml and 17.1 mIU/ml and 131.4 mIU/ml and 180.7 mIU/ml and 71.5 mIU/ml
- EPO Wk 12 [2, 7]: 117.2 mIU/ml and 24.4 mIU/ml and 238.5 mIU/ml and 340.5 mIU/ml and 71.5 mIU/ml
- HbF Peak [2, 7]: 7.5 g/dL and 0.7 g/dL and 3.5 g/dL and 5.6 g/dL and 4.1 g/dL
- HbF Wk 12 [2, 7]: 7.1 g/dL and 0.7 g/dL and 3.4 g/dL and 5.6 g/dL and 3.6 g/dL
- Hemoglobin Peak [2, 7]: 9.4 g/dL and 11.8 g/dL and 7.7 g/dL and 8.7 g/dL and 7.6 g/dL
- Hemoglobin Wk 12 [2, 7]: 9.4 g/dL and 11.8 g/dL and 6.4 g/dL and 8.7 g/dL and 7.5 g/dL
- Indirect Bilirubin Nadir [2, 7]: 27.4 µmol/L and 83.8 µmol/L and 48 µmol/L and 18 µmol/L and 8 µmol/L
- Indirect Bilirubin Wk 12 [2, 7]: 30.8 µmol/L and 83.8 µmol/L and 48 µmol/L and 33 µmol/L and 10 µmol/L
- Neutrophil count Nadir [2, 7]: 2.82e+09 L⁻¹ and 2.2e+09 L⁻¹ and 5.2e+09 L⁻¹ and 2.1e+09 L⁻¹ and 4.5e+09 L⁻¹
- Neutrophil count Wk 12 [2, 7]: 4.62e+09 L⁻¹ and 2.2e+09 L⁻¹ and 7.9e+09 L⁻¹ and 1.03e+10 L⁻¹ and 5.7e+09 L⁻¹
- Normochromic Normovolumetric Cells Peak [2, 7]: 45.9% and 70% and 70.9% and 72.4%
- Normochromic Normovolumetric Cells Wk 12 [2, 7]: 45.9% and 69% and 70.5% and 66.4% and 68.1%
- Platelet count Peak [2, 7]: 2.96e+11 L⁻¹ and 1.038e+12 L⁻¹ and 1.265e+12 L⁻¹ and 8.01e+11 L⁻¹ and 1.301e+12 L⁻¹
- Platelet count Wk 12 [2, 7]: 2.81e+11 L⁻¹ and 1.038e+12 L⁻¹ and 1.265e+12 L⁻¹ and 7.56e+11 L⁻¹ and 1.301e+12 L⁻¹
- Serum LDH Nadir [2, 7]: 660 U/L and 541 U/L and 260 U/L and 149 U/L and 204 U/L
- Serum LDH Wk 12 [2, 7]: 660 U/L and 556 U/L and 324 U/L and 167 U/L and 204 U/L
- level that causes measurable DNA damage and apoptosis/cytotoxicity ([3]; peak drug level): > 1000 nM
- DNMT1 depletion [3, 8]: substantially depleted DNMT1
- phospho-H2AX, DNA scission or apoptosis [3, 8]: did not increase phospho-H2AX, DNA scission or apoptosis
- plasma t ½ ([4]; Fig 1C, decitabine alone): < 15 min
- decitabine half-life in vivo ([4]; abbreviated by CDA, ref 27;28): < 20 min
- oral bioavailability ([4]; decitabine alone): negligible
- plasma half-life ([4]; decitabine alone): only minutes
- Cmax ([4]; read-out: Cmax that correlates with nucleotide pool imbalance, DNA-damage, and cytotoxicity): > 500 nM
- decrease of the incidence of cancers (cancers): 30%
- HbF% increases by HPLC (HbF; decitabine 0.08 mg/kg and […] (cohorts 4 and 5)): increases by HPLC were observed
- HbF% increases by HPLC (HbF; other decitabine dose levels (cohorts 1-3)): not with other decitabine dose levels
- transgene mutations (E. Coli lac I transgene): mutations predominantly at CpG nucleotides
- Cmax ([5]; human, plasma, po, decitabine plasma concentration, Cmax, oral decitabine 0.08 mg/kg (cohort 4) 60 min after oral THU 10 mg/kg): 9 to 21 nM
- Cmax ([5]; human, plasma, po, decitabine plasma concentration, Cmax, oral decitabine […] (cohort 5) 60 min after oral THU 10 mg/kg, at 2 hours): ~50 nM
- decitabine detected in the plasma ([5]; lowest oral decitabine dose level 0.01 mg/kg after oral THU 10 mg/kg): detected
- decitabine Tmax ([5]; oral decitabine 60 minutes after THU 10 mg/kg): hours
- Cmax ([5]; read-out: decitabine plasma concentration, Cmax, oral decitabine […] (cohort 5) 60 min after oral THU 10 mg/kg, at 2 hours): 39 to 54 nM
- mutagenicity [6]: weak mutagen
